Data from patent US6855843B2, “Inhibitors of α4 mediated cell adhesion” (Tanabe Seiyaku Co., Ltd., priority 1998, dated 2005).
Counter-ions that a name gives are not always drawn.

Molecular target: T1, α4β7 (adhesion of RPMI cells to CS-1) (Homo sapiens, UniProt P13612+P26010)
T1 construct: endogenous in cells
T1 sequence (P13612 34-1032): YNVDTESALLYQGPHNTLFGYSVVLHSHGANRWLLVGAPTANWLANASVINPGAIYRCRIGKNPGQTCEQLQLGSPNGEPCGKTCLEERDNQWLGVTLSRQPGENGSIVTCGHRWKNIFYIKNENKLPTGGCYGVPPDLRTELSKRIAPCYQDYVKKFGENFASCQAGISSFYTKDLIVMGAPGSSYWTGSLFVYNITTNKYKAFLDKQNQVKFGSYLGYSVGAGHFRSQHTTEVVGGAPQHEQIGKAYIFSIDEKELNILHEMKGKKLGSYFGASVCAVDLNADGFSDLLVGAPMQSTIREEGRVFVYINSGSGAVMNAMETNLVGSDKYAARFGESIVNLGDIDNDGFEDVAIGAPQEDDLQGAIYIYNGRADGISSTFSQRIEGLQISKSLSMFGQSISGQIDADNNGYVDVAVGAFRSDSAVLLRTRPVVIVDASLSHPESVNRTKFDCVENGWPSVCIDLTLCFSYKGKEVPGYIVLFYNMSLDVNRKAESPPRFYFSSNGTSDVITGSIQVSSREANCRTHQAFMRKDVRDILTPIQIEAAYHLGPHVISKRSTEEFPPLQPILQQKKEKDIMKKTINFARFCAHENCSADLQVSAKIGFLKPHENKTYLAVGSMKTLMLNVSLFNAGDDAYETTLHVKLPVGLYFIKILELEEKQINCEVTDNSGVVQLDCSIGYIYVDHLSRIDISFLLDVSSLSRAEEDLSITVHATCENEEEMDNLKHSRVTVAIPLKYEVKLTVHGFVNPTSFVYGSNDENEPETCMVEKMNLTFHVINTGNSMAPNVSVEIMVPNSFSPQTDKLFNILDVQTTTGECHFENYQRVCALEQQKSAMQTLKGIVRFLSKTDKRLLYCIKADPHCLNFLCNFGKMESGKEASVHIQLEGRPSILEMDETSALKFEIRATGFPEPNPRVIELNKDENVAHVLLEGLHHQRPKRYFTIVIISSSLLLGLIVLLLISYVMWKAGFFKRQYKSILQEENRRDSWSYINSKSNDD
T1 sequence (P26010 20-798): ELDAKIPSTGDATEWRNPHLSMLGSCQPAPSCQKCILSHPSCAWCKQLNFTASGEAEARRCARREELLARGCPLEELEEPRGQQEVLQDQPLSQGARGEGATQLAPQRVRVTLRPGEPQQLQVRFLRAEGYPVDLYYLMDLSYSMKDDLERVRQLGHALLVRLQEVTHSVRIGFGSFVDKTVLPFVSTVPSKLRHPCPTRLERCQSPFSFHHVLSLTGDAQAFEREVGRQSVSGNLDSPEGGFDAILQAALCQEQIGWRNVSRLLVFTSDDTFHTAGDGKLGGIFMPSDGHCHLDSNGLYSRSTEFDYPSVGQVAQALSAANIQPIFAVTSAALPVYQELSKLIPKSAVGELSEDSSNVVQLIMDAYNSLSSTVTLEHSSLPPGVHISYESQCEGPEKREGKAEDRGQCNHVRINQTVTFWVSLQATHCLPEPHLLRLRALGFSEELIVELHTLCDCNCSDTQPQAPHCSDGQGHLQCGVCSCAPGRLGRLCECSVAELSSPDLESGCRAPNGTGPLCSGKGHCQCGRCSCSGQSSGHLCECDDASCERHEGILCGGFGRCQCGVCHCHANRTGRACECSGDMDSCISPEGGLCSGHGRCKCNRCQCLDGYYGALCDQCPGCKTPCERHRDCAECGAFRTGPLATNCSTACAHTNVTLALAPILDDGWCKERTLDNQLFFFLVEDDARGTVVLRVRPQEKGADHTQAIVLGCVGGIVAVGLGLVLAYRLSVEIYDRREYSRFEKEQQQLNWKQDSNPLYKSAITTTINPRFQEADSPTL
Assay: RPMI-CS-1 cell adhesion assay
Assay type: cell-based
Conditions: adhesion of RPMI B-cell line (expresses α4β7) to CS-1 peptide coated microwells; read-out: RPMI-CS-1 IC50 value range

SMILES | IC50 [nM]
COc1cccc(OC)c1-c1ccc(C[C@H](NC(=O)c2c(Cl)cc(-c3cnccn3)cc2Cl)C(=O)O)cc1 [Example 308, N-[4-(2-Pyrazinyl)-2,6-dichlorobenzoyl]-4-(2,6-dimethoxyphenyl)-L-phenylalanine] | < 300
COc1cccc(OC)c1-c1ccc(C[C@H](NC(=O)c2c(Cl)ccc(Br)c2Cl)C(=O)O)cc1 [Example 331, N-(2,6-Dichloro-3-bromobenzoyl)-4-(2,6-dimethoxyphenyl)-L-phenylalanine] | < 300
O=C(N[C@@H](Cc1ccc(-c2ccncc2)cc1)C(=O)O)c1c(Cl)cccc1Cl [Example 217, N-(2,6-Dichlorobenzoyl)-4-(4-pyridyl)-L-phenylalanine] | 1000 to 5000
COc1ccccc1-c1ccc(C[C@H](NC(=O)c2ccc(S(N)(=O)=O)cc2)C(=O)O)cc1 [Example 210] | 1000 to 5000
COc1ccc(-c2ccc(C[C@H](NC(=O)c3c(Cl)cccc3Cl)C(=O)O)cc2)c(OC)c1 [Example 9, N-(2,6-Dichlorobenzoyl)-4-(2,4-dimethoxyphenyl)-L-phenylalanine] | < 300
O=C(N[C@@H](Cc1ccc(-c2ccsc2CO)cc1)C(=O)O)c1c(Cl)cccc1Cl [Example 218, N-(2,6-Dichlorobenzoyl)-4-(2-hydroxymethyl-3-thienyl)-L-phenylalanine] | 1000 to 5000
COc1ccccc1-c1ccc(C[C@H](NC(=O)c2ccc(NS(=O)(=O)c3ccc(C)cc3)cc2Cl)C(=O)O)cc1 [Example 188, N-[2-Chloro-4-(tosylamino)benzoyl]-4-(2-methoxyphenyl)-L-phenylalanine] | < 300
CN(C)c1ccccc1-c1ccc(C[C@H](NC(=O)c2c(Cl)cccc2Cl)C(=O)O)cc1 [Example 27, N-(2,6-Dichlorobenzoyl)-4-[2-(N,N-dimethylamino)phenyl]-L-phenylalanine] | < 300
O=C(N[C@@H](Cc1ccc(-c2ccccc2CO)cc1)C(=O)O)c1c(Cl)cccc1Cl [Example 50, N-(2,6-Dichlorobenzoyl)-4-[2-(hydroxymethyl)phenyl]-L-phenylalanine] | < 300
COC(=O)Nc1ccccc1-c1ccc(C[C@H](NC(=O)c2c(Cl)cccc2Cl)C(=O)O)cc1 [Example 26, N-(2,6-Dichlorobenzoyl)-4-[2-(methoxycarbonylamino)phenyl]-L-phenylalanine] | 300 to 1000
COc1cccc(OC)c1-c1ccc(C[C@H](NC(=O)c2c(Cl)cc(-c3c(C)noc3C)cc2Cl)C(=O)O)cc1 [Example 309] | < 300

Now from value to molecule:

IC50 [nM] | SMILES
300 to 1000 | COc1cccc(OC)c1-c1ccc(C[C@H](NC(=O)c2c(Cl)ccc(-c3c(C)noc3C)c2Cl)C(=O)O)cc1 [Example 305, N-[3-(3,5-Dimethyl-4-isoxazolyl)-2,6-dichlorobenzoyl]-4-(2,6-dimethoxyphenyl)-L-phenylalanine]
300 to 1000 | CON=C(C)c1cc(C[C@H](NC(=O)c2c(Cl)cccc2Cl)C(=O)O)ccc1-c1ccccc1OC [Example 352, N-(2,6-Dichlorobenzoyl)-3-[1-(methoxyimino)ethyl]-4-(2-methoxyphenyl)-L-phenylalanine]
1000 to 5000 | CC(=O)Nc1cc(C[C@H](NC(=O)c2c(Cl)cccc2Cl)C(=O)O)ccc1-c1ccccc1 [Example 343, N-(2,6-Dichlorobenzoyl)-3-acetylamino-4-phenyl-L-phenylalanine]
< 300 | COc1ccccc1-c1ccc(C[C@H](NC(=O)c2cc(NS(=O)(=O)C(F)(F)F)ccc2Cl)C(=O)O)cc1 [Example 180, N-[2-Chloro-5-[(trifluoromethanesulfonyl)amino]-benzoyl]-4-(2-methoxyphenyl)-L-phenylalanine]
< 300 | COc1cc(CN(C)CCN(C)C)cc(OC)c1-c1ccc(C[C@H](NC(=O)c2c(Cl)cccc2Cl)C(=O)O)cc1 [Example 247]
< 300 | COc1cc(OCc2ccccc2)cc(OC)c1-c1ccc(C[C@H](NC(=O)c2c(Cl)cccc2Cl)C(=O)O)cc1 [Example 350]
300 to 1000 | O=C(N[C@@H](Cc1ccc(-c2ccccc2OCc2ccccn2)cc1)C(=O)O)c1c(Cl)cccc1Cl [Example 38]
> 5000 | O=C(N[C@@H](Cc1ccc(-c2ccccc2)cc1)C(=O)O)c1ccc(F)cc1Cl [Example 109]
1000 to 5000 | COc1cccc(OC)c1-c1ccc(C[C@H](NC(=O)c2cccc([N+](=O)[O-])c2)C(=O)O)cc1 [Example 284]
1000 to 5000 | CCOC(=O)Nc1cc(C[C@H](NC(=O)c2c(Cl)cccc2Cl)C(=O)O)ccc1-c1ccccc1 [Example 344]
< 300 | COc1ccc2c(c1-c1ccc(C[C@H](NC(=O)c3c(Cl)cccc3Cl)C(=O)O)cc1)OCO2 [Example 240, N-(2,6-Dichlorobenzoyl)-4-(2,3-methylenedioxy-6-methoxyphenyl)-L-phenylalanine]
< 300 | COC(=O)[C@H](Cc1ccc(-c2c(OC)cccc2OC)cc1)NC(=O)c1c(Cl)cccc1Cl [Example 7A, N-(2,6-Dichlorobenzoyl)-4-(2,6-dimethoxyphenyl)-L-phenylalanine methyl ester]
300 to 1000 | O=C(N[C@@H](Cc1ccc(-c2ccccc2O)cc1)C(=O)O)c1c(Cl)cccc1Cl [Example 30, N-(2,6-Dichlorobenzoyl)-4-(2-hydroxyphenyl)-L-phenylalanine]

Tested on: not given
Assay: not given
Conditions: not given

SMILES | melting point [°C]
COc1cccc(OC)c1-c1ccc(C[C@H](NC(=O)c2c(Cl)cc(-c3cnccn3)cc2Cl)C(=O)O)cc1 [Example 308, N-[4-(2-Pyrazinyl)-2,6-dichlorobenzoyl]-4-(2,6-dimethoxyphenyl)-L-phenylalanine] | 145.7
COc1cccc(OC)c1-c1ccc(C[C@H](NC(=O)c2c(Cl)ccc(Br)c2Cl)C(=O)O)cc1 [Example 331, N-(2,6-Dichloro-3-bromobenzoyl)-4-(2,6-dimethoxyphenyl)-L-phenylalanine] | 234.8
CNc1ccc(C(=O)N[C@@H](Cc2ccc(-c3ccccc3OC)cc2)C(=O)O)c(Cl)c1 | 82.8
COc1cccc(OC)c1-c1ccc(C[C@H](NC(=O)c2c(Cl)cc(-c3ccn[nH]3)cc2Cl)C(=O)O)cc1 (as salt: TFA) [Example 304, N-[4-(5-Pyrazolyl)-2,6-dichlorobenzoyl)-4-(2,6-dimethoxyphenyl)-L-phenylalanine] | 156
COc1cc(CN2CCSCC2)cc(OC)c1-c1ccc(C[C@H](NC(=O)c2c(Cl)cccc2Cl)C(=O)O)cc1 [Example 253, N-(2,6-dichlorobenzoyl)-4-[2,6-dimethoxy-4-(thiomorpholinomethyl)phenyl]-L-phenylalanine] | 86 to 89
Cc1noc(C)c1-c1ccc(C[C@H](NC(=O)c2c(Cl)cccc2Cl)C(=O)O)cc1 [Example 330, N-(2,6-Dichlorobenzoyl)-4-(3,5-dimethyl-4-isoxazolyl)-L-phenylalanine] | 119

The next lines start with the values.

melting point [°C] | SMILES
144.8 | COc1cccc(OC)c1-c1ccc(C[C@H](NC(=O)c2c(Cl)ccc(-c3c(C)noc3C)c2Cl)C(=O)O)cc1 [Example 305, N-[3-(3,5-Dimethyl-4-isoxazolyl)-2,6-dichlorobenzoyl]-4-(2,6-dimethoxyphenyl)-L-phenylalanine]
106.8 | CON=C(C)c1cc(C[C@H](NC(=O)c2c(Cl)cccc2Cl)C(=O)O)ccc1-c1ccccc1OC [Example 352, N-(2,6-Dichlorobenzoyl)-3-[1-(methoxyimino)ethyl]-4-(2-methoxyphenyl)-L-phenylalanine]
146.5 | CCOC(=O)[C@H](Cc1ccc(-c2c(OC)cc(CN(C)C)cc2OC)cc1)NC(=O)c1c(Cl)cccc1Cl (as salt: hydrochloride) [Example 259, N-(2,6-Dichlorobenzoyl)-4-[2,6-dimethoxy-4-[(N,N-dimethylamino)methyl]phenyl]-L-phenylalanine ethyl ester hydrochloride]
226 | CCOC(=O)[C@H](Cc1ccc(-c2c(OC)cc(CN3CCN(C)CC3)cc2OC)cc1)NC(=O)c1c(F)cccc1F (as salt: HCl) [Example 356]
79.3 | COc1ccccc1-c1ccc(C[C@H](NC(=O)c2ccc(N(C)S(C)(=O)=O)cc2Cl)C(=O)O)cc1
177.5 | CCOC(=O)[C@H](Cc1ccc(-c2c(OC)cc(CN3CCOCC3)cc2OC)cc1)NC(=O)c1c(Cl)cccc1Cl.Cl
224.4 | COc1cccc(O)c1-c1ccc(C[C@H](NC(=O)c2c(Cl)cccc2Cl)C(=O)O)cc1 [Example 359, N-(2,6-Dichlorobenzoyl)-4-(6-methoxy-2-hydroxyphenyl)-L-phenylalanine]
